Assay results: publication PMC4450297, “Screening Active Compounds from Garcinia Species Native to China Reveals Novel Compounds Targeting the STAT/JAK Signaling Pathway” (BioMed Research International, 2015)

How the values were obtained:
Assay in all cases: Cell panel screen (CellTiter-Glo)
Assay type in all cases: cell-based, human
HPAF-II = HPAF-II (Pancreas), 20 micromolar, 72 hrs
Procedure, shortened: (§1)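 Steps: seed cells, culture overnight at 37°C; add compound diluted in medium from DMSO stock to 20 μM final; incubate 72 h; add detection reagent for 10 min; read luminescence; compute % inhibition versus vehicle controls.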

SW13 = SW13 (Adrenal gland), 20 micromolar, 72 hrs
Procedure, shortened: as §1

RL95 = RL95 (Uterus), 20 micromolar, 72 hrs
Procedure, shortened: as §1

HCC1395 = HCC1395 (Breast), 20 micromolar, 72 hrs
Procedure, shortened: as §1

TCCSUP = TCCSUP (Urinary bladder), 20 micromolar, 72 hrs
Procedure, shortened: as §1

HEC-1-A = HEC-1-A (Uterus), 20 micromolar, 72 hrs
Procedure, shortened: as §1

HGC-27 = HGC-27 (Stomach), 20 micromolar, 72 hrs
Procedure, shortened: as §1

NCI-H28 = NCI-H28 (Lung), 20 micromolar, 72 hrs
Procedure, shortened: as §1

NCI-H1694 = NCI-H1694 (Lung), 20 micromolar, 72 hrs
Procedure, shortened: as §1

Bel-7402 = Bel-7402 (Liver), 20 micromolar, 72 hrs
Procedure, shortened: as §1

A704 = A704 (Kidney), 20 micromolar, 72 hrs
Procedure, shortened: as §1

CW-2 = CW-2 (Colon), 20 micromolar, 72 hrs
Procedure, shortened: as §1

A498 = A498 (listed under Lung), 20 micromolar, 72 hrs
Procedure, shortened: as §1

Panc 03.27 = Panc 03.27 (Pancreas), 20 micromolar, 72 hrs
Procedure, shortened: as §1

HT-1197 = HT-1197 (Urinary bladder), 20 micromolar, 72 hrs
Procedure, shortened: as §1

BT-474 = BT-474 (Breast), 20 micromolar, 72 hrs
Procedure, shortened: as §1

M059J = M059J (Brain), 20 micromolar, 72 hrs
Procedure, shortened: as §1

ZR-75-30 = ZR-75-30 (Breast), 20 micromolar, 72 hrs
Procedure, shortened: as §1

NCI-H1623 = NCI-H1623 (Lung), 20 micromolar, 72 hrs
Procedure, shortened: as §1

C8166 = C8166 (Leukemia), 20 micromolar, 72 hrs
Procedure, shortened: as §1

BT-549 = BT-549 (Breast), 20 micromolar, 72 hrs
Procedure, shortened: as §1

HCC1937 = HCC1937 (Breast), 20 micromolar, 72 hrs
Procedure, shortened: as §1

HCC1569 = HCC1569 (Breast), 20 micromolar, 72 hrs
Procedure, shortened: as §1

CCF-STTG1 = CCF-STTG1 (Brain), 20 micromolar, 72 hrs
Procedure, shortened: as §1

C3A = C3A (Liver), 20 micromolar, 72 hrs
Procedure, shortened: as §1

NCI-H524 = NCI-H524 (Lung), 20 micromolar, 72 hrs
Procedure, shortened: as §1

ChaGo-K-1 = ChaGo-K-1 (Lung), 20 micromolar, 72 hrs
Procedure, shortened: as §1

J82 = J82 (Urinary bladder), 20 micromolar, 72 hrs
Procedure, shortened: as §1

T47D = T47D (Breast), 20 micromolar, 72 hrs
Procedure, shortened: as §1

Colo 205 = details: Colo 205, 20 micromolar, 72 hrs
Procedure, shortened: as §1

NCI-H1770 = NCI-H1770 (Lung), 20 micromolar, 72 hrs
Procedure, shortened: as §1

T98G = T98G (Brain), 20 micromolar, 72 hrs
Procedure, shortened: as §1

NCI-H2405 = NCI-H2405 (Lung), 20 micromolar, 72 hrs
Procedure, shortened: as §1

MSTO-211-H = MSTO-211-H (Lung), 20 micromolar, 72 hrs
Procedure, shortened: as §1

HCC1599 = HCC1599 (Breast), 20 micromolar, 72 hrs
Procedure, shortened: as §1

NCI-H2347 = NCI-H2347 (Lung), 20 micromolar, 72 hrs
Procedure, shortened: as §1

Compound | Percent Inhibition (HPAF-II) [%] | Percent Inhibition (SW13) [%] | Percent Inhibition (RL95) [%] | Percent Inhibition (HCC1395) [%] | Percent Inhibition (TCCSUP) [%] | Percent Inhibition (HEC-1-A) [%] | Percent Inhibition (HGC-27) [%] | Percent Inhibition (NCI-H28) [%] | Percent Inhibition (NCI-H1694) [%] | Percent Inhibition (Bel-7402) [%] | Percent Inhibition (A704) [%] | Percent Inhibition (CW-2) [%] | Percent Inhibition (A498) [%] | Percent Inhibition (Panc 03.27) [%] | Percent Inhibition (HT-1197) [%] | Percent Inhibition (BT-474) [%] | Percent Inhibition (M059J) [%] | Percent Inhibition (ZR-75-30) [%] | Percent Inhibition (NCI-H1623) [%] | Percent Inhibition (C8166) [%] | further results
CC(C)=CCc1c2c(c(O)c3c1OC14C(=CC5CC1C(C)(C)OC4(CC=C(C)C(=O)O)C5=O)C3=O)C=CC(C)(C)O2 (stereo not drawn) [GB27] | 98 | 99 | 98 | 99 | 99 | 99 | 98 | 90 | 99 | 97 | 98 | 99 | 88 | 97 | 95 | 98 | 99 | 99 | 98 | 99 | Percent Inhibition (BT-549): 98%; Percent Inhibition (HCC1937): 99%; Percent Inhibition (HCC1569): 99%; Percent Inhibition (CCF-STTG1): 99%; Percent Inhibition (C3A): 98%; Percent Inhibition (NCI-H524): 99%; Percent Inhibition (ChaGo-K-1): 98%; Percent Inhibition (J82): 98%; Percent Inhibition (T47D): 99%; Percent Inhibition (Colo 205): 99%; Percent Inhibition (NCI-H1770): 99%; Percent Inhibition (T98G): 99%; Percent Inhibition (NCI-H2405): 98%; Percent Inhibition (MSTO-211-H): 99%; Percent Inhibition (HCC1599): 99%; Percent Inhibition (NCI-H2347): 93%
COc1ccc2c(=O)c3c(O)cc(O)cc3oc2c1OC [Go-14] | 0 | -12 | -5 | -8 | 6 | -6 | -2 | -3 | -3 | -8 | -13 | 5 | -2 | 4 | -3 | -23 | 0 | -20 | -10 | 2 | Percent Inhibition (BT-549): -16%; Percent Inhibition (HCC1937): 3%; Percent Inhibition (HCC1569): 2%; Percent Inhibition (CCF-STTG1): -1%; Percent Inhibition (C3A): -7%; Percent Inhibition (NCI-H524): -5%; Percent Inhibition (ChaGo-K-1): -16%; Percent Inhibition (J82): -8%; Percent Inhibition (T47D): -3%; Percent Inhibition (Colo 205): 8%; Percent Inhibition (NCI-H1770): -4%; Percent Inhibition (T98G): 8%; Percent Inhibition (NCI-H2405): -10%; Percent Inhibition (MSTO-211-H): 11%; Percent Inhibition (HCC1599): 0%; Percent Inhibition (NCI-H2347): -2%
